Data as given in patent US7491819B1 (priority 2004, dated 2009).

What follows are compounds tested against T1, HIV-integrase (Human immunodeficiency virus type 1 group M subtype B, UniProt P12497) (assay: HIV-Integrase Inhibition Activity (SPA bead strand-transfer assay)). Conditions: Table 1; read-out: Activity (HIV-integrase inhibition, IC50 class).
T1 construct: Recombinant integrase (0.26 ng) was incubated with the beads
Assay type: biochemical
Protocol: HIV-Integrase Inhibition Activity. To evaluate in-vitro activity against HIV-integrase, 5 pmole of biotin labeled substrate DNA was bound to 100 μg of Streptavidin coated PVT SPA beads (Amersham Pharmacia Biotech). Recombinant integrase (0.26 ng) was incubated with the beads for 90 min at 37° C. Unbound enzyme was removed by washing the complex followed by addition of inhibitors and 0.1 fmol of P33 labeled target DNA. The reaction was stopped by adding EDTA to a final concentration of 10 mM. Samples were counted in TopCountNXT (Packard) and the CPM was used as a measure of integration. The reaction condition was as described in A. Engelman and R. Craigie, J. Virol 69, 5908-5911 (1995). The sequences of substrate and target DNA were described in Nucleic Acid Research 22, 1121-1122 (1994).

SMILES | IC50 [nM]
CC1(C)OCCn2c1nc(C(=O)NCc1ccc(F)cc1C(=O)O)c(O)c2=O [Example 48, Benzoic acid, 5-fluoro-2-[[[(4,6,7,9-tetrahydro-3-hydroxy-9,9-dimethyl-4-oxopyrimido[2,1-c][1,4]oxazin-2-yl)carbonyl]amino]methyl]-] | 2 to 100
CC1(C)OCCn2c1nc(C(=O)NCc1ccccc1-c1ccc(CC#N)cc1)c(O)c2=O [Example 189, Pyrimido[2,1-c][1,4]oxazine-2-carboxamide, N-[[4′-(cyanomethyl)[1,1′-biphenyl]-2-yl]methyl]-4,6,7,9-tetrahydro-3-hydroxy-9,9-dimethyl-4-oxo-] | 2 to 100
Cc1cc(F)ccc1CNC(=O)c1nc2n(c(=O)c1O)CCOC2(C)C [Example 39, Pyrimido[2,1-c][1,4]oxazine-2-carboxamide, N-[(4-fluoro-2-methylphenyl)methyl]-4,6,7,9-tetrahydro-3-hydroxy-9,9-dimethyl-4-oxo-] | 2 to 100
Cc1noc(C)c1-c1ccccc1CNC(=O)c1nc2n(c(=O)c1O)CCOC2(C)C [Example 180, Pyrimido[2,1-c][1,4]oxazine-2-carboxamide, N-[[2-(3,5-dimethyl-4-isoxazolyl)phenyl]methyl]-4,6,7,9-tetrahydro-3-hydroxy-9,9-dimethyl-4-oxo-] | 2 to 100
CCC1OCCn2c1nc(C(=O)NCc1ccc(F)c(Cl)c1)c(O)c2=O (stereo not drawn) [Example 14, Pyrimido[2,1-c][1,4]oxazine-2-carboxamide, N-[(3-chloro-4-fluorophenyl)methyl]-9-ethyl-4,6,7,9-tetrahydro-3-hydroxy-4-oxo-] | 2 to 100
CC1(C)OCCn2c1nc(C(=O)NCc1ccc(F)cc1C(=O)N1CCOCC1)c(O)c2=O [Example 52, Pyrimido[2,1-c][1,4]oxazine-2-carboxamide, N-[[4-fluoro-2-(4-morpholinylcarbonyl)phenyl]methyl]-4,6,7,9-tetrahydro-3-hydroxy-9,9-dimethyl-4-oxo-] | 2 to 100
CC1(C)OCCn2c1nc(C(=O)NCc1cccc3c1NC(=O)C3)c(O)c2=O [Example 94] | 2 to 100
CCC1(CC)OCCn2c1nc(C(=O)NCc1ccc(F)cc1)c(O)c2=O [Example 42, Pyrimido[2,1-c][1,4]oxazine-2-carboxamide, 9,9-diethyl-N-[(4-fluorophenyl)methyl]-4,6,7,9-tetrahydro-3-hydroxy-4-oxo-] | 2 to 100
CC1(C)OCCn2c1nc(C(=O)NCCCc1ccccc1)c(O)c2=O [Example 217, Pyrimido[2,1-c][1,4]oxazine-2-carboxamide, 4,6,7,9-tetrahydro-3-hydroxy-9,9-dimethyl-4-oxo-N-(3-phenylpropyl)-] | 2 to 100
CN(C)S(=O)(=O)c1cc(F)ccc1CNC(=O)c1nc2n(c(=O)c1O)CCOC2(C)C [Example 108, Pyrimido[2,1-c][1,4]oxazine-2-carboxamide, N-[[2-[(dimethylamino)sulfonyl]-4-fluorophenyl]methyl]-4,6,7,9-tetrahydro-3-hydroxy-9,9-dimethyl-4-oxo-] | 2 to 100
CSc1cc(F)ccc1CNC(=O)c1nc2n(c(=O)c1O)CCOC2(C)C [Example 100, Pyrimido[2,1-c][1,4]oxazine-2-carboxamide, N-[[4-fluoro-2-(methylthio)phenyl]methyl]-4,6,7,9-tetrahydro-3-hydroxy-9,9-dimethyl-4-oxo-] | 2 to 100
CC1(C)OCCn2c1nc(C(=O)NCc1ccc(F)cc1S(N)(=O)=O)c(O)c2=O [Example 110, Pyrimido[2,1-c][1,4]oxazine-2-carboxamide, N-[[2-(aminosulfonyl)-4-fluorophenyl]methyl]-4,6,7,9-tetrahydro-3-hydroxy-9,9-dimethyl-4-oxo-] | 2 to 100
CC1(C)OCCn2c1nc(C(=O)NCc1ccc(-n3nccn3)cc1F)c(O)c2=O [Example 58, Pyrimido[2,1-c][1,4]oxazine-2-carboxamide, N-[[2-fluoro-4-(2H-1,2,3-triazol-2-yl)phenyl]methyl]-4,6,7,9-tetrahydro-3-hydroxy-9,9-dimethyl-4-oxo-] | 2 to 100
CC1(C)OCCn2c1nc(C(=O)NCc1ccccc1-n1cncn1)c(O)c2=O [Example 216, Pyrimido[2,1-c][1,4]oxazine-2-carboxamide, 4,6,7,9-tetrahydro-3-hydroxy-9,9-dimethyl-4-oxo-N-[[2-(1H-1,2,4-triazol-1-yl)phenyl]methyl]-] | 2 to 100
CC1(C)OCCn2c1nc(C(=O)NCc1ccccc1-c1cccc(O)c1)c(O)c2=O [Example 165, Pyrimido[2,1-c][1,4]oxazine-2-carboxamide, 4,6,7,9-tetrahydro-3-hydroxy-N-[(3′-hydroxy[1,1′-biphenyl]-2-yl)methyl]-9,9-dimethyl-4-oxo-] | 2 to 100
CN(C)C(=O)COc1cc(F)ccc1CNC(=O)c1nc2n(c(=O)c1O)CCOC2(C)C [Example 98, Pyrimido[2,1-c][1,4]oxazine-2-carboxamide, N-[[2-[2-(dimethylamino)-2-oxoethoxy]-4-fluorophenyl]methyl]-4,6,7,9-tetrahydro-3-hydroxy-9,9-dimethyl-4-oxo-] | 2 to 100
CC1(C)OCCn2c1nc(C(=O)NCc1ccc3c(c1)CCO3)c(O)c2=O [Example 250, Pyrimido[2,1-c][1,4]oxazine-2-carboxamide, N-[(2,3-dihydro-5-benzofuranyl)methyl]-4,6,7,9-tetrahydro-3-hydroxy-9,9-dimethyl-4-oxo-] | 2 to 100
CC1(C)OCCCn2c1nc(C(=O)NCc1ccc(F)cc1S(C)(=O)=O)c(O)c2=O [Example 202, 6H-Pyrimido[2,1-c][1,4]oxazepine-2-carboxamide, N-[[4-fluoro-2-(methylsulfonyl)phenyl]methyl]-4,7,8,10-tetrahydro-3-hydroxy-10,10-dimethyl-4-oxo-] | 2 to 100
CC1(C)OCCn2c1nc(C(=O)NCc1ccc(F)cc1N1CCC1=O)c(O)c2=O [Example 126, N-(4-Fluoro-2-(2-oxoazetidin-1-yl)benzyl)-3-hydroxy-9,9-dimethyl-4-oxo-4,6,7,9-tetrahydropyrimido[2,1-c][1,4]oxazine-2-carboxamide] | 2 to 100
CS(=O)(=O)CCC1OCCn2c1nc(C(=O)NCc1ccc(F)cc1)c(O)c2=O (stereo not drawn) [Example 209, Pyrimido[2,1-c][1,4]oxazine-2-carboxamide, N-[(4-fluorophenyl)methyl]-4,6,7,9-tetrahydro-3-hydroxy-9-[2-(methylsulfonyl)ethyl]-4-oxo-] | 2 to 100
CC1(C)OCCn2c1nc(C(=O)NCc1cccc(F)c1)c(O)c2=O [Example 220, Pyrimido[2,1-c][1,4]oxazine-2-carboxamide, N-[(3-fluorophenyl)methyl]-4,6,7,9-tetrahydro-3-hydroxy-9,9-dimethyl-4-oxo-] | 2 to 100
CC(C)Oc1ccc(CNC(=O)c2nc3n(c(=O)c2O)CCOC3(C)C)cc1 [Example 145, Pyrimido[2,1-c][1,4]oxazine-2-carboxamide, 4,6,7,9-tetrahydro-3-hydroxy-9,9-dimethyl-N-[[4-(1-methylethoxy)phenyl]methyl]-4-oxo-] | > 1000
CC1(C)OCCn2c1nc(C(=O)NCc1ccc(F)cc1-c1ccn[nH]1)c(O)c2=O [Example 85, Pyrimido[2,1-c][1,4]oxazine-2-carboxamide, N-[[4-fluoro-2-(1H-pyrazol-5-yl)phenyl]methyl]-4,6,7,9-tetrahydro-3-hydroxy-9,9-dimethyl-4-oxo-] | 2 to 100
CC1(C)OCCn2c1nc(C(=O)NCc1cc(F)ccc1-n1cncn1)c(O)c2=O [Example 54, Pyrimido[2,1-c][1,4]oxazine-2-carboxamide, N-[[5-fluoro-2-(1H-1,2,4-triazol-1-yl)phenyl]methyl]-4,6,7,9-tetrahydro-3-hydroxy-9,9-dimethyl-4-oxo-e] | 2 to 100
Cc1ccc(CNC(=O)c2nc3n(c(=O)c2O)CCOC3(C)C)cc1 [Example 240, Pyrimido[2,1-c][1,4]oxazine-2-carboxamide, 4,6,7,9-tetrahydro-3-hydroxy-9,9-dimethyl-N-[(4-methylphenyl)methyl]-4-oxo-] | 2 to 100
CC1(C)OCCn2c1nc(C(=O)NCc1cccc3c1S(=O)(=O)C=C3)c(O)c2=O [Example 139, Pyrimido[2,1-c][1,4]oxazine-2-carboxamide, N-[(1,1-dioxidobenzo[b]thien-7-yl)methyl]-4,6,7,9-tetrahydro-3-hydroxy-9,9-dimethyl-4-oxo-] | 2 to 100
Cc1ccc(F)c(CNC(=O)c2nc3n(c(=O)c2O)CCOC3(C)C)c1Cl [Example 278, Pyrimido[2,1-c][1,4]oxazine-2-carboxamide, N-[(2-chloro-6-fluoro-3-methylphenyl)methyl]-4,6,7,9-tetrahydro-3-hydroxy-9,9-dimethyl-4-oxo-] | 2 to 100
Cc1ccc(CNC(=O)c2nc3n(c(=O)c2O)CCOC3(C)C)c(F)c1F [Example 276, Pyrimido[2,1-c][1, 4]oxazine-2-carboxamide, N-[(2,3-difluoro-4-methylphenyl)methyl]-4,6,7,9-tetrahydro-3-hydroxy-9,9-dimethyl-4-oxo-] | 2 to 100
CCC1(CC)OCCn2c1nc(C(=O)NCc1ccc(F)cc1-n1cncn1)c(O)c2=O [Example 119, Pyrimido[2,1-c][1,4]oxazine-2-carboxamide, 9,9-diethyl-N-[[4-fluoro-2-(1H-1,2,4-triazol-1-yl)phenyl]methyl]-4,6,7,9-tetrahydro-3-hydroxy-4-oxo-] | 2 to 100
CC1(C)OCCn2c1nc(C(=O)NCc1cccc(-n3cccn3)c1)c(O)c2=O [Example 252, Pyrimido[2,1-c][1,4]oxazine-2-carboxamide, 4,6,7,9-tetrahydro-3-hydroxy-9,9-dimethyl-4-oxo-N-[[3-(1H-pyrazol-1-yl)phenyl]methyl]-] | 100 to 1000
